Experimental data from ChEMBL document CHEMBL5260832, “Hepatoprotective natural triterpenoids” (Eur J Med Chem, 2018).

Assays:
[1] = Hepatotoxicity in GaIN-induced rat model of liver injury assessed as reduction in ALT level at 4 mg/kg relative to control; assay type: toxicity, organism-based; design: scale not given: the % may be the effect or the level left; conditions: in vivo
[2] = test system: HepG2; test: Hepatoprotective activity against H2O2-induced cell death in human HepG2 cells assessed as elevated level AST at 65.7 uM; assay type: functional
[3] = test system: HepG2; test: Hepatoprotective activity against H2O2-induced cell death in human HepG2 cells assessed as elevated level ALT at 65.7 uM; assay type: functional
[4] = organism: Mus musculus; test: Hepatoprotective activity in mouse model of CCl4-induced liver injury assessed as reduction in AST level at 100 microg/ml (reference value: 5.9 U/mL); assay type: functional; conditions: dose 100 µg/ml
[5] = test system: Rattus norvegicus; test: Hepatoprotective activity in CCl4-induced rat model assessed as elevated level of GPT at 10 mg/kg relative to control; assay type: functional
[6] = test system: Rattus norvegicus; test: Hepatoprotective activity in CCl4-induced rat model assessed as elevated level of GPT at 20 mg/kg relative to control; assay type: functional
[7] = test system: Rattus norvegicus; test: Hepatoprotective activity in CCl4-induced rat model assessed as elevated level of GOT at 10 mg/kg relative to control; assay type: functional
[8] = test system: Rattus norvegicus; test: Hepatoprotective activity in CCl4-induced rat model assessed as elevated level of GOT at 20 mg/kg relative to control; assay type: functional
[9] = test system: Rattus norvegicus; test: Hepatoprotective activity in CCl4-induced rat model assessed as elevated level of ALP at 10 mg/kg relative to control; assay type: functional
[10] = test system: Rattus norvegicus; test: Hepatoprotective activity in CCl4-induced rat model assessed as elevated level of ALP at 20 mg/kg relative to control; assay type: functional
[11] = test system: Rattus norvegicus; test: Hepatoprotective activity in CCl4-induced rat model assessed as elevated level of bilirubin at 10 mg/kg relative to control; assay type: functional
[12] = test system: Rattus norvegicus; test: Hepatoprotective activity in CCl4-induced rat model assessed as elevated level of bilirubin at 20 mg/kg relative to control; assay type: functional
[13] = test system: Rattus norvegicus; test: Hepatoprotective activity in ethanol-induced rat model of liver injury assessed as reduction in AST level at 4 mg/kg relative to control; assay type: functional; design: scale not given: the % may be the effect or the level left
[14] = test system: Rattus norvegicus; test: Hepatoprotective activity in ethanol-induced rat model of liver injury assessed as reduction in ALT level at 4 mg/kg relative to control; assay type: functional; design: scale not given: the % may be the effect or the level left
[15] = test system: Rattus norvegicus; test: Hepatoprotective activity in GaIN-induced rat model of liver injury assessed as reduction in ALT level at 4 mg/kg relative to control; assay type: functional; design: scale not given: the % may be the effect or the level left
[16] = organism: Mus musculus; test: Hepatoprotective activity in CCl4-induced toxicity in liver injured mouse assessed as increase in inhibition of liver damage relative to control; assay type: functional; design: concentration or dose not given beside the values
[17] = test system: Mus musculus; test: Hepatoprotective activity in mouse model of D-GaIN/LPS-induced liver injury assessed as inhibition of beta-glucuronidase secretion at […] relative to control; assay type: functional; design: scale not given: the % may be the effect or the level left; conditions: dose 10 µg/ml
[18] = Hepatotoxicity in CCl4-induced liver damage in ICR mouse model assessed as reduction in sGOT level at 10 mg/kg relative to control; assay type: toxicity, organism-based; design: scale not given: the % may be the effect or the level left; conditions: in vivo
[19] = Hepatotoxicity in CCl4-induced liver damage in ICR mouse model assessed as reduction in sGPT level at 10 mg/kg relative to control; assay type: toxicity, organism-based; design: scale not given: the % may be the effect or the level left; conditions: in vivo
[20] = organism: Mus musculus; test: Hepatoprotective activity in CCl4-induced toxicity in liver injured mouse assessed as increase in inhibition of liver damage at 50 uM relative to control; assay type: functional; design: scale not given: the % may be the effect or the level left
[21] = organism: Mus musculus; test: Hepatoprotective activity in GaIN-induced toxicity in liver injured mouse assessed as increase in inhibition of liver damage at 50 uM relative to control; assay type: functional; design: scale not given: the % may be the effect or the level left
[22] = test system: Mus musculus; test: Hepatoprotective activity against CCl4-induced mouse acute liver injury model assessed as decreased sGOT level at 15 mg/kg, ip relative to control; assay type: functional; design: scale not given: the % may be the effect or the level left
[23] = test system: Mus musculus; test: Hepatoprotective activity against CCl4-induced mouse chronic liver injury model assessed as decreased sGOT level at 15 mg/kg, ip relative to control; assay type: functional; design: scale not given: the % may be the effect or the level left
[24] = test system: Mus musculus; test: Hepatoprotective activity against CCl4-induced mouse acute liver injury model assessed as decreased sGPT level at 15 mg/kg, ip relative to control; assay type: functional; design: scale not given: the % may be the effect or the level left
[25] = test system: Mus musculus; test: Hepatoprotective activity against CCl4-induced mouse chronic liver injury model assessed as decreased sGPT level at 15 mg/kg, ip relative to control; assay type: functional; design: scale not given: the % may be the effect or the level left
[26] = test system: Mus musculus; test: Hepatoprotective activity against CCl4-induced mouse acute liver injury model assessed as decreased LDH level at 15 mg/kg, ip relative to control; assay type: functional; design: scale not given: the % may be the effect or the level left
[27] = test system: Mus musculus; test: Hepatoprotective activity against CCl4-induced mouse chronic liver injury model assessed as decreased LDH level at 15 mg/kg, ip relative to control; assay type: functional; design: scale not given: the % may be the effect or the level left
[28] = test system: Mus musculus; test: Hepatoprotective activity against CCl4-induced mouse acute liver injury model assessed as decreased AP level at 15 mg/kg, ip relative to control; assay type: functional; design: scale not given: the % may be the effect or the level left
[29] = test system: Mus musculus; test: Hepatoprotective activity against CCl4-induced mouse chronic liver injury model assessed as decreased AP level at 15 mg/kg, ip relative to control; assay type: functional; design: scale not given: the % may be the effect or the level left

## COC(=O)[C@]12CC[C@@H](C)[C@H](C)[C@H]1C1=CC[C@@H]3[C@@]4(C)C[C@@H](OCc5ccccc5)C5OC(C)(C)OC[C@@]5(C)[C@@H]4CC[C@@]3(C)[C@]1(C)CC2 (some centres undefined)
[1]
  Activity: 33.6%

## C[C@H]1C(=O)CC[C@@H]2[C@]1(C)CC[C@H]1[C@@]2(C)CC[C@@]2(C)[C@@H]3CC(C)(C)CC[C@]3(C)CC[C@]12C [FRIEDELINE]
[2]
  Activity: 67.5%
[3]
  Activity: 30.8%

## C[C@H]1[C@H](C)CC[C@]2(C)CC[C@]3(C)C(=CC[C@@H]4[C@@]5(C)CC[C@H](O)C(C)(C)[C@@H]5CC[C@]43C)[C@H]12
[4]
  Activity: 40.22 U/ml

## CC(C)[C@@H]1CC[C@@H]2C3=CC[C@@H]4[C@@]5(C)CC[C@@H](O)C(C)(C)[C@@H]5CC[C@@]4(C)[C@]3(C)CC[C@]21C(=O)O
[5]
  Activity: 24%
[6]
  Activity: 13%
[7]
  Activity: 13%
[8]
  Activity: 21%
[9]
  Activity: 5%
[10]
  Activity: 32%
[11]
  Activity: 30%
[12]
  Activity: 24%

## C[C@H]1[C@H](C)CC[C@]2(C(=O)O)CC[C@]3(C)C(=CC[C@@H]4[C@@]5(C)C[C@@H](O)[C@H](O)[C@@](C)(CO)[C@@H]5CC[C@]43C)[C@H]12 [ASIATIC ACID]
[13]
  Activity: 25%
[14]
  Activity: 20%
[15]
  Activity: 23.1%
[16]
  Activity: 1%

## CC(C)=CCC[C@]1(C)CC[C@]2(C)[C@H]3CC=C4[C@@H](CC[C@H](O)C4(C)C)[C@]3(C)CC[C@@]2(C)C1
[17]
  Activity: 57%

## C=C(C)[C@@H]1CC[C@]2(C)CC[C@]3(C)[C@H](CC[C@@H]4[C@@]5(C)CC[C@@H](OC(=O)CCCCCCCCCCCCCCC)C(C)(C)[C@@H]5CC[C@]43C)[C@@H]12
[18]
  Activity: 9.2%
[19]
  Activity: 6.9%

## C[C@H]1[C@H](C)CC[C@]2(C(=O)O)CC[C@]3(C)C(=CC[C@@H]4[C@@]5(C)CC(=O)[C@H](O)[C@@](C)(CO)[C@@H]5CC[C@]43C)[C@H]12
[20]
  Activity: 54.3%
[21]
  Activity: 49%

## CC1(C)CC[C@]2(C)CC[C@]3(C)C(=CC[C@@H]4[C@@]5(C)CCC(=O)C(C)(C)[C@@H]5C(O)C[C@]43C)[C@@H]2C1 (some centres undefined)
[22]
  Activity: 51.3%
[23]
  Activity: 38.8%
[24]
  Activity: 45.3%
[25]
  Activity: 36.4%
[26]
  Activity: 45%
[27]
  Activity: 24.8%
[28]
  Activity: 40.6%
[29]
  Activity: 55.3%
